This experiment deals with T1, GPR40 (Homo sapiens, UniProt O14842).
T1 construct: expressed in transfected cells; host or cells: HEK293 cells stably expressing GPR40 (Hygromycin selection)
Nature of the experiment: IP1 accumulation assay in HEK293 cells stably expressing GPR40. The format is cell-based. As to the method:
IP1 accumulation assay was used to evaluate the potency of compounds. HEK293 cells stably expressing GPR40 were cultured in 5% CO2 incubator (ThermoFisher) in maintenance media (Dulbecco's modified Eagle's medium with 4.5 g/L of glucose, 10% fetal bovine serum, 100 μg/mL Hygromycin, and Penicillin (100 U/mL)/Streptomycin (100 μg/mL)) till 100% confluency. Cells were harvested freshly, spun down at 300×g for 5 min, and resuspended in pre-warmed 1× stimulant buffer from Cisbio IP-One HTRF Detection kit (Cisbio). Cell density was adjusted to 2.0×10^6 cells/mL. DMSO was used as blank control and AMG-1638 (CAS #: 1142214-62-7) as positive control. Compounds were prepared at 10 mM in DMSO and 5 nL of 3× serially diluted compounds (10 concentrations) were added to each well of the 384-LDV assay plate (Corning) by using ECHO 550 (Labcyte). Five μL of cells in suspension were transferred into each well by using Multidrop Combi Reagent Dispenser (ThermoFisher). Assay plate was then sealed and incubated at 37° C. for 2 hours. IP-d2 reagent and anti-IP1 reagent were prepared following the manual (Cisbio). Five μL of IP1-d2 and then 5 μL of anti-IP1 antibody was added to each well sequentially. Assay plate was incubated at room temperature for 60 min and then read at 665 nm/615 nm on an Envision plate reader (PerkinElmer). The ratio of values obtained at 665 nm and 615 nm was used for calculation of IP1 accumulation: % Effect=(Ratiosample−Ratioblank)/(RatioAMG-1638−Ratioblank)×100. Dose curve was fitted and EC50 of each compound was calculated by using XLFit.

Setting [1] is: IP1 accumulation, HEK293 cells stably expressing GPR40, 2 hours at 37° C., % effect relative to AMG-1638, table of Biological Example 1.
[2] abbreviates: Tables A-1a to A-7b (structure-property relationship), obtained by methods of Biological Example 1.
The mark [3] stands for this setting: Table A-8 (additional examples), obtained by methods of Biological Example 1.

The structures appear in SMILES notation. pEC50: −log10 of the molar value.

T1 sequence (O14842 whole entry): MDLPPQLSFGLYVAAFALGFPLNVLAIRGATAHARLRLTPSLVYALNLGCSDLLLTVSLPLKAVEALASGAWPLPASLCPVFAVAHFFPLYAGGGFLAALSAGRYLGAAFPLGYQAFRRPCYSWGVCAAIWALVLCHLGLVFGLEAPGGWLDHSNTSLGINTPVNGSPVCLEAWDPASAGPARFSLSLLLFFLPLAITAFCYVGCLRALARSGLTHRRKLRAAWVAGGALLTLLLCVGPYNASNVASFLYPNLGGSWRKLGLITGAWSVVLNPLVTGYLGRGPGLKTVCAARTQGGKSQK

For `COc1ccc(C(=O)N(CC(C)(C)CCn2cc(CCCCCCCCCCCCCCC(=O)NCC[N+](C)(CCC(=O)NCCN)CCC(=O)NCCN)nn2)c2cccc(C)n2)c(N2CCC(c3cc4ccc([C@@H](CC(=O)O)C5CC5)cc4o3)CC2)c1` [Example 177], the pEC50 under setting [1] was 10.10.
Consider `C[C@H](C(=O)O)[C@H](c1ccc2c(c1)O[C@@H](C1CCN(Cc3cc(-c4cn(CCCCCCCCCCCC(=O)NCC[N+](C)(CCC(=O)NCCN)CCC(=O)NCCN)nn4)ccc3OC(F)(F)F)CC1)CC2)C1CC1` [Example 83], for which the pEC50 was 6.19 under setting [1] and 6.19 under setting [2].
For `COc1ccc(C(=O)N(CC(C)(C)CCn2cc(CCCCCCCCCC(=O)NCCN(CCC(=O)NCCN)CCC(=O)NCCN)nn2)c2cccc(C)n2)c(N2CCC(COc3cc([C@@H](CC(=O)O)C4CC4)ccn3)CC2)c1` [Example 197], the pEC50 was 7.07 under setting [1], 7.08 under setting [3] and 7.07 under setting [2].
As to `COc1ccc(C(=O)N(CC(C)(C)CCCCCCn2cc(CCCCCCCCCC(=O)NCCCN(CC(=O)O)CC(=O)O)nn2)c2cccc(C)n2)c(N2CCC(COc3cc([C@@H](CC(=O)O)C4CC4)ccn3)CC2)c1` [Example 204], the pEC50 under setting [1] was 8.15.
Under setting [1], `COc1ccc(F)c(-c2ccc(COc3cccc([C@@H](CC(=O)O)C4CC4)c3)cc2CC(C)(C)Cn2cc(CCCCCCCCCCCCCCCC(=O)NCCC[N+](C)(CC(=O)NCCN)CC(=O)NCCN)nn2)c1` [Example 156] gave a pEC50 of 8.60.
As for `COc1ccc(C(=O)N(CC(C)(C)CCn2cc(CCCCCCCCCCCCCCCC(=O)NCCC[N+](C)(CC(=O)[O-])CC(=O)O)nn2)c2cccc(C)n2)c(N2CCC(COc3cc([C@@H](CC(=O)O)C4CC4)ccn3)CC2)c1` (stereo partly shown) [Example 218], the pEC50 is 9.36 under setting [1] and 9.36 under setting [2].
With `C[C@H](C(=O)O)[C@H](c1ccc2c(c1)O[C@@H](C1CCN(Cc3cc(-c4cn(CCCCCCCCCCCCCCCCCC(=O)NCC[N+](C)(C)C)nn4)ccc3OC(F)(F)F)CC1)CC2)C1CC1` [Example 35], the pEC50 under setting [1] is 8.93.
As for `C[C@H](C(=O)O)[C@H](c1ccc2c(c1)O[C@@H](C1CCN(Cc3cc(-n4cc(CCCCCCCCCCCCC(=O)NCC[N+](C)(CCC(=O)NCCN)CCC(=O)NCCN)nn4)ccc3OC(F)(F)F)CC1)CC2)C1CC1` [Example 2], the pEC50 by setting is: under setting [1], 8.02; under setting [3], 8.02; under setting [2], 8.02.
In the case of `COc1ccc(F)c(-c2ccc(COc3cccc([C@@H](CC(=O)O)C4CC4)c3)cc2C(OC)C(C)(C)Cn2cc(CCCCCCCCCCCCCCCCCC(=O)NCCN(CCC(=O)NCCN)CCC(=O)NCCN)nn2)c1` (stereo partly shown) [Example 14], the pEC50 under setting [1] was 8.06.
As for `COc1ccc(C(=O)N(CC(C)(C)CCn2cc(CCCCCCCCCCCCCC(=O)NCCN(CCC(=O)NCCN)CCC(=O)NCCN)nn2)c2cccc(C)n2)c(N2CCC(COc3cc([C@@H](CC(=O)O)C4CC4)ccn3)CC2)c1` [Example 116], the pEC50 runs as follows: under setting [1], 9.68; under setting [2], 9.68.
As for `COc1ccc(C(=O)N(CC(C)(C)CCCCCCn2cc(CCCCCCC(=O)NCC[N+](C)(CCC(=O)NCCN)CCC(=O)NCCN)nn2)c2cccc(C)n2)c(N2CCC(COc3cc([C@@H](CC(=O)O)C4CC4)ccn3)CC2)c1` [Example 99], the pEC50 is 8.34 under setting [1] and 8.34 under setting [2].
For the compound `COc1ccc(C(=O)N(CC(C)(C)CCCCCCn2cc(CCCCC(=O)NCCC[N+](C)(CC(=O)[O-])CC(=O)O)nn2)c2cccc(C)n2)c(N2CCC(COc3cc([C@@H](CC(=O)O)C4CC4)ccn3)CC2)c1` (stereo partly shown) [Example 211], the pEC50 under setting [1] was 7.18.
Consider `COc1ccc(F)c(-c2ccc(COc3cccc([C@@H](CC(=O)O)C4CC4)c3)cc2CC(C)(C)Cn2cc(CCCCCCCCCCCC(=O)NCCC[N+](C)(CC(=O)[O-])CC(=O)O)nn2)c1` (stereo partly shown) [Example 122], for which the pEC50 under setting [1] is 6.00.
With `COc1ccc(F)c(-c2ccc(COc3cccc([C@@H](CC(=O)O)C4CC4)c3)cc2CC(C)(C)Cn2cc(CCCCCCCCCCCCCC(=O)NCC[N+](C)(CCC(=O)NCCN)CCC(=O)NCCN)nn2)c1` [Example 57], the pEC50 reads like this: under setting [1], 7.20; under setting [2], 7.03.
For `C[C@H](C(=O)O)[C@H](c1ccc2c(c1)O[C@@H](C1CN(Cc3cc(-c4cn(CCCCCCCCCCCCCCCCCC(=O)NCC[N+](C)(CCC(=O)NCCN)CCC(=O)NCCN)nn4)ccc3OC(F)(F)F)C1)CC2)C1CC1` [Example 45], the pEC50 under setting [1] was 9.17.
`COc1ccc(F)c(-c2ccc(COc3cccc([C@@H](CC(=O)O)C4CC4)c3)cc2CC(C)(C)Cn2cc(CCCCCCCCCCCCCCCC(=O)NCCCN(CC(=O)NCCN)CC(=O)NCCN)nn2)c1` [Example 153] gave a pEC50 under setting [1] of 8.18.
On to `COc1ccc(C(=O)N(CC(C)(C)CCn2cc(CCCCCCCCCCCCCCCC(=O)NCCN(CCC(=O)NCCN)CCC(=O)NCCN)nn2)c2cccc(C)n2)c(N2CCC(COc3cc([C@@H](CC(=O)O)C4CC4)ccn3)CC2)c1` [Example 198], for which the pEC50 by setting is: under setting [1], 9.77; under setting [3], 9.77; under setting [2], 9.77.
Turning to `COc1ccc(F)c(-c2ccc(COc3cccc([C@@H](CC(=O)O)C4CC4)c3)cc2CC(C)(C)Cn2cc(CCCCCCCCCCCCCCCCCC(=O)NCCC[N+](C)(CC(=O)O)CC(=O)O)nn2)c1` [Example 93], the pEC50 under setting [1] was 8.34.
With `COc1ccc(F)c(-c2ccc(COc3cccc([C@@H](CC(=O)O)C4CC4)c3)cc2CC(C)(C)Cn2cc(CCCCCCCCCCCCCCC(=O)NCCC[N+](C)(CC(=O)O)CC(=O)O)nn2)c1` [Example 109], the pEC50 under setting [1] is < 6.00.
`COc1ccc(F)c(-c2ccc(COc3cccc([C@@H](CC(=O)O)C4CC4)c3)cc2C(C)(C)c2cn(CCCCCCCCCCCCCCC(=O)NCC[N+](C)(CCC(=O)NCCN)CCC(=O)NCCN)nn2)c1` [Example 51] had a pEC50 under setting [1] of 6.50.
In the case of `COc1ccc(F)c(-c2ccc(COc3cccc([C@@H](CC(=O)O)C4CC4)c3)cc2CC(C)(C)Cc2cn(CCCCCCCCCCCCCCC(=O)NCC[N+](C)(CCC(=O)NCCN)CCC(=O)NCCN)nn2)c1` [Example 102], the pEC50 was 8.39 under setting [1] and 8.39 under setting [2].
`C[C@H](C(=O)O)[C@H](c1ccc2c(c1)O[C@@H](C1CCN(Cc3cc(-n4cc(CCCCCCCCCCCCCCCCCC(=O)NCCN(CCC(=O)NCCN)CCC(=O)NCCN)nn4)ccc3OC(F)(F)F)CC1)CC2)C1CC1` [Example 3]: the negative-log EC50 (pEC50) was 8.96 under setting [1] and 8.96 under setting [2].
Compound `COc1ccc(C(=O)N(CC(C)(C)CCn2cc(CCCCCCCCCCCCCCCCCC(=O)NCCC[N+](C)(C)CC(=O)NCCN)nn2)c2cccc(C)n2)c(N2CCC(COc3cc([C@@H](CC(=O)O)C4CC4)ccn3)CC2)c1` [Example 151] gave a pEC50 under setting [1] of 10.30.
As for `C[C@H](C(=O)O)[C@H](c1ccc2c(c1)O[C@@H](C1CCN(Cc3cc(-c4cn(CCCCCCCCCCCCCCCCCC(=O)NCC[N+](C)(CCC(=O)NCCN)CCC(=O)NCCN)nn4)ccc3OC(F)(F)F)CC1)CC2)C1CC1` [Example 7], the pEC50 was 9.19 under setting [1] and 9.19 under setting [2].
Take `COc1ccc(F)c(-c2ccc(COc3cccc([C@@H](CC(=O)O)C4CC4)c3)cc2CC(C)(C)Cn2cc(CCCCCCCCCCCCCC(=O)NCCC[N+](C)(CC(=O)O)CC(=O)O)nn2)c1` [Example 107]: the pEC50 under setting [1] is 5.88.
Under setting [1], `COc1ccc(F)c(-c2ccc(COc3cccc([C@@H](CC(=O)O)C4CC4)c3)cc2C(C)(C)Cn2cc(CCCCCCCCCCCCCCCCCC(=O)NCC[N+](C)(CCC(=O)NCCN)CCC(=O)NCCN)nn2)c1` [Example 158] had a pEC50 of 8.05.
The compound `COc1ccc(C(=O)N(CC(C)(C)CCCCCCn2cc(CCCCCCCCCCCC(=O)NCCCN(CC(=O)O)CC(=O)O)nn2)c2cccc(C)n2)c(N2CCC(COc3cc([C@@H](CC(=O)O)C4CC4)ccn3)CC2)c1` [Example 205] gave a pEC50 under setting [1] of 9.03.
As for `COc1ccc(F)c(-c2ccc(COc3cccc([C@@H](CC(=O)O)C4CC4)c3)cc2OC(C)(C)Cn2cc(CCCCCCCCCCCCCCCCCC(=O)NCC[N+](C)(CCC(=O)NCCN)CCC(=O)NCCN)nn2)c1` [Example 32], the pEC50 under setting [1] is 8.70.
`COc1ccc(C(=O)N(CC(C)(C)CCCCCCn2cc(CCCCCCCCC(=O)NCCCN(CC(=O)O)CC(=O)O)nn2)c2cccc(C)n2)c(N2CCC(COc3cc([C@@H](CC(=O)O)C4CC4)ccn3)CC2)c1` [Example 203] had a pEC50 under setting [1] of 7.92.
Compound `C[C@H](C(=O)O)[C@H](c1ccc2c(c1)O[C@@H](C1CCN(Cc3cc(-n4cc(CCCCCCCCCCCCCCCCCC(=O)NCC[N+](C)(CCC(=O)NCCN)CCC(=O)NCCN)nn4)ccc3OC(F)(F)F)CC1)CC2)C1CC1` [Example 4] gave a pEC50 under setting [1] of 9.51 and a negative-log EC50 (pEC50) under setting [2] of 9.51.
As to `COc1ccc(C(=O)N(CC(C)(C)CCCCCCCCCCCCCCCCCCCC(=O)NCC[N+](C)(CC(=O)NCCN)CC(=O)NCCN)c2cccc(C)n2)c(N2CCC(COc3cc([C@@H](CC(=O)O)C4CC4)ccn3)CC2)c1` [Example 67], the pEC50 under setting [1] was 9.42.

These data come from patent publication US20250223281A1, “ANTIDIABETIC COMPOUNDS AND COMPOSITIONS” (REZUBIO PHARMACEUTICALS CO., LTD, priority 2022, published 2025).
